Each structure is given as a SMILES string. Positions count from the first letter of the chain named.

Data set [1] concerns non small cell lung cancer. Description: Example 2: patient with non small cell lung cancer. Type of data set: in vivo, human. Particulars: 75 mg per day with IRESSA 250 mg per day for two months. As for the experimental part:
A patient suffering from non small cell lung cancer was treated with IRESSA® (250 mg per day) for two months. The disease progressed during the treatment and thae patient was continued on IRESSA® (250 mg per day) with daily dosage of 4-oxo-retinol (75 mg per day) for two months. The disease became stable and the patient continued taking IRESSA® (250 mg per day) for 4 more months without 4-oxo-retinol with a stale disease.

In the next data set the target is T1, monomeric mouse RARa (Mus musculus, UniProt P11416).
T1 sequence (P11416 1-462): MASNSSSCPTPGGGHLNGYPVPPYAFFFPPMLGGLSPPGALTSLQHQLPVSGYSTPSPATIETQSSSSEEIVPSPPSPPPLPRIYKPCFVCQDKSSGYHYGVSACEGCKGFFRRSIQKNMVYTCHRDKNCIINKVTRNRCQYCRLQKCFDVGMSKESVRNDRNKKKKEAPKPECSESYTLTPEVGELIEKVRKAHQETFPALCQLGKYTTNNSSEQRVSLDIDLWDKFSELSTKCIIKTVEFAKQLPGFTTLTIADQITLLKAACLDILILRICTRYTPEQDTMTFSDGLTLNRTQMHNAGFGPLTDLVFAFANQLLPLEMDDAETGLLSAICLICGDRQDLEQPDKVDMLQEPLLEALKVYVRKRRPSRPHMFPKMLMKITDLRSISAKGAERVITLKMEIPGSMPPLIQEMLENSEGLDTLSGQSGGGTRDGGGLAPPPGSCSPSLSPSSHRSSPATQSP
Particulars: read-out: IC50, ability to displace all-trans RA; cited from earlier work.

The next data set addresses T2, monomeric mouse RAR b (Mus musculus, UniProt P22605).
T2 sequence (P22605 1-482): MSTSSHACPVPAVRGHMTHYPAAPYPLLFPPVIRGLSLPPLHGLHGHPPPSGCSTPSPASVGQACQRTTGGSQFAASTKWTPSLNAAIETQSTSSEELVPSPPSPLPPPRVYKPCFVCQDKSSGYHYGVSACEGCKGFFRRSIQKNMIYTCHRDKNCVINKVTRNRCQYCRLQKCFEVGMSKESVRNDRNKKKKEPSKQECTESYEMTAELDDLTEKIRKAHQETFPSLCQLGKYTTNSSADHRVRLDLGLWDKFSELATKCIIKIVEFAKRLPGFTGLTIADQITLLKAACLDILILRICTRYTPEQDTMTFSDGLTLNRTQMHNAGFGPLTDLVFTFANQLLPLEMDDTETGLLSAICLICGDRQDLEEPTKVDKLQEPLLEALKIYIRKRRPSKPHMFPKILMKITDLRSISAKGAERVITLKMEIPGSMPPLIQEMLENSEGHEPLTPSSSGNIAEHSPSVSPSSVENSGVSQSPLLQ
Particulars: read-out: IC50, ability to displace all-trans RA; cited from earlier work.

In the next data set the target is T3, RARγ (Mus musculus, UniProt P18911).
T3 sequence (P18911 1-458): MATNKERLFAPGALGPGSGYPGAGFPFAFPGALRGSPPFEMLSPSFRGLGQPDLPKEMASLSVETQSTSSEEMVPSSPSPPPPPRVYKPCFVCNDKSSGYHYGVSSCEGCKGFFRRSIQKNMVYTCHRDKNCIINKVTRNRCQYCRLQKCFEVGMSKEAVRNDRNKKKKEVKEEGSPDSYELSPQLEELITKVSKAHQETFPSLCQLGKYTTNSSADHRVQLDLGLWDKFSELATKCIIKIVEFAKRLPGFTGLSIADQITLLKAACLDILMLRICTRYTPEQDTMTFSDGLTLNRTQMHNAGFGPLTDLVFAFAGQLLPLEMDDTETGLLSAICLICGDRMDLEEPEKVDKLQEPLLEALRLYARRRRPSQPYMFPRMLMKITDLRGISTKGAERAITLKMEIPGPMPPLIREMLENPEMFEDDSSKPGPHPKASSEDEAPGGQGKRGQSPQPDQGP
Particulars: read-out: IC50, ability to displace all-trans RA; cited from earlier work.

The target in the next data set is T4, human RARα (Homo sapiens, UniProt P10276).
T4 sequence (P10276 1-462): T1 sequence (P11416 1-462) with S43T, D150E, A169V, K347R, S427P, T431G, H453N, Q460H
Particulars: cited from earlier work.

Data set [2] addresses T5, RARg ligand binding domain (Homo sapiens, UniProt P13631).
T5 construct: expressed in transfected cells; host or cells: CV-1 cells
Particulars: CV-1 cell transfectants, cited from earlier work.

In the next data set the test system is F9 cells. Particulars: similar to all-trans RA; cited from earlier work.
The test system of data set [3] is F9 embryonal mouse teratocarcinoma cells. Particulars: in F9 cells; cited from earlier work.
A further data set relates to ER+ or ER− tumor lines. Particulars: all the ER+ or ER− tumor lines examined; cited from earlier work.

T5 sequence (P04386 1-147 partner limits assumed, species assumed, one chain of several): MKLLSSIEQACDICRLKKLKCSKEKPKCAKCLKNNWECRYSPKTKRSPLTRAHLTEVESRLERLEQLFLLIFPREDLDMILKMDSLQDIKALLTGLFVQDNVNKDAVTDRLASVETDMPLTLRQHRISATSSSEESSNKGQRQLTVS

In general, IC50 refers to the concentration that gives 50% inhibition. Broadly, the half-life is how long it takes for the measured level to halve. As to `CC(C=CC1=C(C)C(=O)CCC1(C)C)=CC=CC(C)=CCO` [4-oxo-retinol], the disease course entry in data set [1] is reported as “stable”. Also, the IC50 is 330 nM on monomeric mouse RARa, 420 nM at monomeric mouse RAR b and 3200 nM on RARγ. Moreover, the RARα-mediated transactivation entry at human RARα is on record as “potently induced transactivation”. Also, the “activity on GAL4 chimeras by RAR ligand binding domain” value in data set [2] (chimera with ligand binding domain of RARg) is given as “highest activity”. The “RARg activation compared with all-trans RA” value in [2] is recorded as “greater ability to induce RARg activation than all-trans RA”. Besides, the “differentiation of F9 cells” value in the data set on F9 cells is given as “induces differentiation”. For the same compound, the half-life in data set [3] was above 15 h. For the same compound, the growth inhibition result in the data set with ER+ or ER− tumor lines is reported as “growth inhibitory”.
